Experimental findings from patent US12704520B2, “Melanogenesis detection method using FAM86A” (Research & Business Foundation Sungkyunkwan University, priority 2019, dated 2026) are described below.

For series [1], the system named is B16F10 cells. Nature of the series: Melanin content assay after FAM86A knockdown. It counts as cell-based, mouse. The settings on record: FAM86A knockdown without α-MSH, 48 hours, absorbance 405 nm. The protocol: The B16F10 cells cultured in Example 1 were seeded in a 6-well plate at 5×10^4 cells/well and cultured for 24 hours, and the knockdown of the FAM86A gene was induced using FAM86A shRNA represented by SEQ ID NO: 17. The cells were cultured in an incubator under conditions of 37° C. and 5% CO2 for 48 hours, the medium was removed, and then a cell lysis buffer was added at 200 μL per well to lyse the cells, followed by centrifugation at 4° C. and 12,000 rpm for 5 minutes and removal of a supernatant. The resulting pellet was treated with 100 μL of a 10% sodium dodecyl sulfate-1M NaOH solution, and heated for 30 minutes at 60° C. Afterward, the heated solution was maintained at room temperature to cool to 25° C., and absorbance at 405 nm was measured. Here, an amount of melanin production was calculated based on 100% of the amount of melanin in cells in which the FAM86A gene was not knocked down.

A further series relates to cAMP. Nature of the series: cAMP ELISA after FAM86A knockdown. The note with it: B16F10 cells. Type of series: cell-based, mouse. On the procedure: The B16F10 cells cultured in Example 1 were seeded in 6-well plates at a density of 5×10^4 cells per well, grown for 24 hours, and FAM86A shRNA represented by SEQ ID NO: 17 was used for FAM86A gene knockdown. Afterward, the cells were washed twice with PBS. Subsequently, PBS was completely removed, and then 200 μL of RIPA buffer, which is a tissue lysis and staining reagent, was added to each plate, followed by harvesting cells with a scraper. Afterward, a BCA assay was conducted to quantify proteins, and then the expression of cAMP protein was measured using a cAMP ELISA kit (ab65355).
For orientation: ELISA stands for enzyme-linked immunosorbent assay.

The next series has as its system FAM86 (NM_027446.2). Nature of the series: shRNA mean knockdown level of FAM86 (Table 1). Type of series: cell-based. The settings on record: Mus musculus FAM86, pLKO.1 vector.
The subject of series [2] is tyrosinase, TYRP-1, TYRP-2 and MITF genes. Nature of the series: Real-time PCR of melanogenesis-associated genes after FAM86A knockdown. Type of series: cell-based, mouse. The settings on record: B16F10 cells, 48 hours. On the procedure: The B16F10 cells cultured in Example 1 were seeded in 6-well plates at a density of 5×10^4 cells per well, grown for 24 hours, and FAM86A shRNA represented by SEQ ID NO: 17 was used for knockdown of the FAM86A gene. The cells were incubated in an incubator under conditions of 37° C. and 5% CO2 for 48 hours. After 48 hours, the medium was completely removed, the cells were decomposed with TRIzol and neutralized using BCP. The neutralized liquid was treated with isopropanol to precipitate mRNA. Subsequently, only the precipitated mRNA was collected using a centrifuge, and used for the experiment. Intracellular mRNA was synthesized into cDNA using a cDNA kit, and the expression levels of tyrosinase, TYRP-1, TYRP-2 and MITF genes, which are important for melanogenesis, were determined by PCR.

The subject of series [3] is MAPK & MC1R signaling pathway proteins. Nature of the series: Western blotting of MAPK & MC1R signaling pathway proteins after FAM86A knockdown. It counts as cell-based, mouse. The settings on record: B16F10 cells, 48 hours. On the procedure: The B16F10 cells cultured in Example 1 were seeded in 6-well plates at a density of 5×10^4 cells per well, grown for 24 hours, and FAM86A shRNA represented by SEQ ID NO: 17 was used to induce the knockdown of FAM86A gene. The cells were cultured in an incubator under conditions of 37° C. and 5% CO2 for 48 hours. Afterward, the cells were washed twice with PBS. After completely removing the PBS, 200 μL of RIPA buffer, which is a cell lysis and staining reagent, was added to the plate, and the cells were collected using a scraper. Afterward, a protein was quantified using a BCA assay, and electrophoresis was performed using 10% SDS-PAGE. The protein in the resulting PAGE gel was transferred onto a PVDF membrane, and the resulting PVDF membrane onto which the protein transfer had been completed was blocked in TBS-T (in 100 mM NaCl, 10 mM Tris, 0.1% (v/v) Tween-20, pH 7.4 (PBST) containing 3% BSA) at room temperature. Then, after washing three times for 10 minutes using TBS-T, a primary antibody in 3% BSA dissolved in TBS-T was treated for 1 hour, and sufficiently washed with TBS-T. In addition, a secondary antibody was treated for 1 hour, and washed three times with PBS-T for 10 minutes each. Subsequently, the amount and location of a specific protein were confirmed using an ECL detection system. The correction of the protein amount was performed by checking the amount of an actin protein by stripping the PVDF membrane, and confirming it to have the same amount as that of the protein of interest. The primary and secondary antibodies were purchased from Cell Signaling and Santa Cruz.

For series [4], the system named is B16F10 cells. Nature of the series: Fontana-Masson staining after FAM86A knockdown. The settings on record: α-MSH 100 nM, 48 hours, microscope. Type of series: cell-based, mouse. On the procedure: The B16F10 cells cultured in Example 1 were seeded in 6-well plates at a density of 5×10^4 cells per well, grown for 24 hours, and FAM86A shRNA represented by SEQ ID NO: 17 was used for knockdown of the FAM86A gene. The cells were treated with α-MSH at 100 nM. The resulting cells were cultured in an incubator under conditions of 37° C. and 5% CO2 for 48 hours, washed twice with PBS, and 1 mL of a 1% ammoniacal silver nitrate solution was added to each well, followed by heating a plate in a 60° C. dryer for 1 hour. Subsequently, the plate was washed three times with running water, and treated with 1 mL of a 0.2% gold chloride solution per well for 30 seconds. Afterward, the plate was washed twice with running water, treated with 1 mL of a 5% sodium thiosulfate solution per well, washed twice with running water, treated with 1 mL of a 0.5% neutral red solution per well for 2 minutes, and then washed with running water. The reaction result was confirmed under a microscope.

In series [5] the test system is B16F10 cells. Nature of the series: Melanin secretion assay after FAM86A knockdown. The note with it: FAM86A knockdown without α-MSH, 48 hours, absorbance 475 nm. Type of series: cell-based, mouse. On the procedure: The B16F10 cells cultured in Example 1 were seeded in a 6-well plate at 5×10^4 cells/well and cultured for 24 hours, and the knockdown of the FAM86A gene was induced using FAM86A shRNA represented by SEQ ID NO: 17. The cells were cultured in an incubator under conditions of 37° C. and 5% CO2 for 48 hours, the medium was removed, and then a cell lysis buffer was added at 200 μL per well to lyse the cells, followed by centrifugation at 4° C. and 12,000 rpm for 5 minutes and removal of a supernatant. 100 μL of the resulting supernatant was dispensed into a 96-well plate, and subjected to absorbance measurement at 475 nm. Here, an amount of melanin secretion was calculated based on 100% of the amount of melanin in cells in which the FAM86A gene was not knocked down.

With “SEQ ID NO: 17: FAM86 shRNA (Mus musculus, NM_027446.2), pLKO.1 vector, target sequence SEQ ID NO: 27; used in the examples (DNA CCGGGTCTATGTAGCCTATACTATCCTCGAGGATAGTATAGGCTACATAGACTTTTTG)”, the “amount of melanin (production)” value with B16F10 cells [1] is listed as “increased”. Besides, the cAMP expression result with cAMP is on record as “increased”. In addition, in the series on FAM86 (NM_027446.2), the “Mean Knock down level” value was found to be 0.87. Besides, in series [2], the “expression level of MITF gene” value was “significantly increased”, the “expression level of TYRP-1 gene” value is given as “significantly increased”, the “expression level of TYRP-2 gene” value is “significantly increased” and the “expression level of tyrosinase gene” value is listed as “significantly increased”. For the same substance, in series [3], the “expression level of MITF protein” value was “significantly increased”, the “expression level of p-CREB protein” value is given as “significantly increased”, the “expression level of p-PKA protein” value was “significantly increased” and the p-ERK result is on record as “decreased”. In series [3], the p-JNK result is “increased” and the p-p38 entry is “increased”. Further, the “presence of melanin (Fontana-Masson staining)” value in the series with B16F10 cells [4] is on record as “more present”. Further, in the series with B16F10 cells [5], the “amount of melanin secretion” value is given as “increased”.
